According to US4748122A, “2,5-diketo-D-gluconic acid reductase” (Shionogi & Co., Ltd., priority 1983, dated 1988):

What was measured:
25DKG-Rase [1] = molecular target: T1, 25DKG-Rase (Corynebacterium sp., UniProt P15339); experiment: Spectrophotometric enzymatic activity (decrease in absorption at 340 nm), purified enzyme solution of Example 1; format: biochemical, Corynebacterium sp. No. 20A-77 mutant (FERM-BP 108); details: for reductive activity (in words) / Activity of the purified enzyme solution (1 ml): NADPH, 0.1M TB pH 7, 30° C.; for Enzymatic activity: per 1 ml purified enzyme solution
T1 construct: The enzyme is an intracellular enzyme extracted from the cells of the 2KLG producing strain; made in house; host or cells: natural producer Corynebacterium sp; No. 20A-77 mutant FERM-BP 108, enzyme purified from sonicated cells; not recombinant
T1 sequence (P15339 2-277 limits assumed): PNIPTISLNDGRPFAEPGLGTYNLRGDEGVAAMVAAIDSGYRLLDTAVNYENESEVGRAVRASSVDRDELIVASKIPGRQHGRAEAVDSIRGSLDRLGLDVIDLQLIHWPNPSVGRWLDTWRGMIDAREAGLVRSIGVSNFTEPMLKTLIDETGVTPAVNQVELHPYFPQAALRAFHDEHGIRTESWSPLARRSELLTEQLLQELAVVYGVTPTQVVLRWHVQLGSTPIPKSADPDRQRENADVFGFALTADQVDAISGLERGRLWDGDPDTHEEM

[2] = test system: 25DKG-Rase derived from Strain K-106; experiment: Substrate specificity by product formation, enzyme from K-106; format: biochemical, Corynebacterium sp. No. K-106 (ATCC 31,088)
Protocol: (§1) The purified enzyme solution (10 μl) obtained above (3) was mixed with 25 μmoles of a substrate (Ca-25DKG or 5KF) and 3.0 ml of 0.01M TB (pH 7) containing 15 μmoles of NADPH and the mixture was allowed to react at 30° C. for 60 minutes. After the reaction, the reaction mixture was analyzed by paper chromatography (developing solvent; phenol:formic acid:water=75:4:25, chromogenic agent; AHF solution, prepared by dissolving 0.93 g of anilin and 1.66 g of phthalic acid in 100 ml of water-saturated n-butanol and heating at 105° C. for 2 minutes) and by gas chromatography (column; SE-52, carrier gas: Helium, sample; trimethylsilylated derivative). […] In Table 1, the results of quantitative determination of the products by gas chromatography are shown.
(§2) The measurements of the physico-chemical properties were conducted in a manner as described in Example 1-(4) (5).

[3] = test system: 25DKG-Rase derived from Strain T-13; experiment: Substrate specificity by product formation, enzyme from T-13; format: biochemical, Corynebacterium sp. No. T-13 (ATCC 31,089)
Protocol: as §1, §2

25DKG-Rase [4] = molecular target: T2, 25DKG-Rase (Corynebacterium sp. SHS752001, UniProt P15339); experiment: Action, substrate specificity and Km of the purified 25DKG-Rase (general description); format: biochemical, genus Corynebacterium; details: for specificities for substrates (reducing action): in the presence of NADPH
Text: As shown, NADPH is used as a hydrogen donor in the above reaction. Reduced nicotinamide adenine dinucleotide (NADH) may also be used as the hydrogen donor in the above reaction but the reaction velocity in that case is lowered to one two hundred and fiftieth (1/250) or less of that in the reaction where NADPH is used.
The enzymatic activity is spectrophotometrically measured on the basis of the decrease in absorption at 340 nm which corresponds to the oxidation of NADPH as the result of the enzyme reaction at 30° C. in 0.1M Tris buffer (pH 7) containing 0.1 mM NADPH and 3.3 mM Ca-25DKG. One unit of the enzymatic activity is defined as that oxidizes 1 μmole of NADPH for one minute.

25DKG-Rase [5] = molecular target: T2, 25DKG-Rase; experiment: as above; format: biochemical, genus Corynebacterium; details: in the presence of NADP or NAD
25DKG-Rase [6] = molecular target: T1, 25DKG-Rase; format: biochemical, Corynebacterium sp. No. 20A-77 mutant (FERM-BP 108); details: 60 minutes; for product formed (paper and gas chromatography): NADPH, 0.01M TB pH 7, 30° C.
[7] = test system: 25DKG-Rase derived from Strain K-106; experiment: Enzymatic activity of 25DKG-Rase obtained from K-106 (Example 2); format: biochemical, Corynebacterium sp. No. K-106 (ATCC 31,088)
Protocol: (§3) Two point nine (2.9) ml of 0.1M TB (pH 7) containing 0.3 μmoles of NADPH was placed in a quartz cubette having 1 cm optical length difference and added 1-5 μl of the enzyme solution obtained above (3) thereto. Then, to the mixture, each 0.1 ml of the various substrate solutions (0.1M) were added while being kept at 30° C. Reactivities of the enzyme on the respective substrates were determined, by means of successive measurement of the decrease in absorption at 340 nm, on the basis of the decrease for 1 minute.
as §2
(§4) Enzymatic activities of 25DKG-Rases obtained from K-106 and T-13 were measured at varying pH from 4 to 9 (substrate: Ca-25DKG, reaction temperature: 30° C.).
(§5) The enzymatic activities of 25DKG-Rases obtained from K-106 and T-13 were measured at varying temperature (pH 7.0, substrate: Ca-25DKG).

[8] = test system: 25DKG-Rase derived from Strain T-13; experiment: Enzymatic activity of 25DKG-Rase obtained from T-13 (Example 2); format: biochemical, Corynebacterium sp. No. T-13 (ATCC 31,089)
Protocol: as §3, §2, §4, §5

25DKG-Rase [9] = molecular target: T2, 25DKG-Rase; experiment: Inhibition, activation and stabilization of the enzyme; format: biochemical, genus Corynebacterium; details: for activation of the enzyme: addition of Mg++ or Mn++; for stabilization of the enzyme: glycerol of a high concentration (30-50%) or sucrose (1M)
Text: It is stabilized by glycerol of a high concentration (30-50%) or sucrose (1M).

T2 sequence (P15339 whole entry): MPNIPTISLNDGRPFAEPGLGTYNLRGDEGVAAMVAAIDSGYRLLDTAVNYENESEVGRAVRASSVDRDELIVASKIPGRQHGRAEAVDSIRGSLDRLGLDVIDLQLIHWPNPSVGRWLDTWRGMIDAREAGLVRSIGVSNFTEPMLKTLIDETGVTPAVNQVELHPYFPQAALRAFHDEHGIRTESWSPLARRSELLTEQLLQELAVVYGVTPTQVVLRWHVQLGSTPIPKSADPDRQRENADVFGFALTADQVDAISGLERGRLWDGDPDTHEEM

SMILES | reductive activity (in words) (25DKG-Rase [1]) | product formed (substrate specificity) [2] | product formed (substrate specificity) [3] | specificities for substrates (reducing action) (25DKG-Rase [4]) | Activity of the purified enzyme solution (1 ml) (25DKG-Rase [1]) [units] | also measured
O=C(O)C(=O)[C@@H](O)[C@H](O)[C@H](O)CO [2-keto-D-gluconic acid] | does not show any reductive activity | None was produced | None was produced | does not show any reducing action | – | –
O=C(O)C(=O)[C@@H](O)[C@H](O)[C@@H](O)CO [2KLG, 2-keto-L-gulonic acid] | does not show any reductive activity | None was produced | None was produced | does not show any reducing action | – | production of 25DKG or 5KF from 2KLG or L-sorbose (reverse reaction) (25DKG-Rase [5]): No or not substantial production
O=C(CO)[C@@H](O)[C@H](O)[C@@H](O)C(=O)O [5-keto-D-gluconic acid] | does not show any reductive activity | None was produced | None was produced | does not reduce | – | –
O=C(CO)[C@@H](O)[C@H](O)C(=O)CO [5KF, 5-keto-D-fructose] | shows a high activity | only L-sorbose | only L-sorbose | shows specificities | 94 | Enzymatic activity (25DKG-Rase [1]; pH 4.0, 3,3-dimethylglutaric acid buffer): 2 unit/ml; Enzymatic activity (25DKG-Rase [1]; pH 5.0, 3,3-dimethylglutaric acid buffer): 33 unit/ml; Enzymatic activity (25DKG-Rase [1]; pH 6.0, Good (PIPES) buffer): 96 unit/ml; Enzymatic activity (25DKG-Rase [1]; pH 6.5, Good (PIPES) buffer): 95 unit/ml; Enzymatic activity (25DKG-Rase [1]; pH 7.0, Good (PIPES) buffer): 92 unit/ml; Enzymatic activity (25DKG-Rase [1]; pH 7.0, Tris buffer): 93 unit/ml; Enzymatic activity (25DKG-Rase [1]; pH 7.5, Tris buffer): 68 unit/ml; Enzymatic activity (25DKG-Rase [1]; pH 8.0, Tris buffer): 48 unit/ml; Enzymatic activity (25DKG-Rase [1]; pH 8.5, Tris buffer): 27 unit/ml; Enzymatic activity (25DKG-Rase [1]; pH 9.0, Tris buffer): 13 unit/ml; Concentration of the product (25DKG-Rase [6]; 10 μl enzyme solution, 25 μmoles substrate, 15 μmoles NADPH, 30° C., gas chromatography): 795 µg/mL; product formed (paper and gas chromatography) (25DKG-Rase [6]): only L-sorbose is produced; Enzymatic activity per protein ([7]; enzyme from Strain K-106, NADPH): 152 units/mg protein; Enzymatic activity ([7]; enzyme from Strain K-106, purified enzyme solution, NADPH): 38.3 units/ml; Enzymatic activity per protein ([8]; enzyme from Strain T-13, NADPH): 229 units/mg protein; Enzymatic activity ([8]; enzyme from Strain T-13, purified enzyme solution, NADPH): 39 units/ml
O=C(O)C(=O)[C@@H](O)[C@H](O)C(=O)CO [25DKG, 2,5-diketo-D-gluconic acid] | shows a high activity | – | – | shows specificities | – | product formed (paper and gas chromatography) (25DKG-Rase [6]): only 2KLG is produced; Km ([7]; purified enzyme solution of K-106): 1700 ± 1000 µM; Km ([8]; purified enzyme solution of T-13): 2600 ± 1000 µM; 25DKG of the substrate reduced to 2KLG (25DKG-Rase [4]; 30° C. for 60-120 minutes): ≥ 90%
O=C(O)C(=O)[C@@H](O)[C@H](O)[C@H](O)CO [Ca-2-keto-D-gluconate] | – | – | – | – | 0 | –
O=C(CO)[C@@H](O)[C@H](O)[C@H](O)CO [D-fructose] | does not show any reductive activity | None was produced | None was produced | does not show any reducing action | 0 | –
O=C(CO)[C@@H](O)[C@H](O)[C@@H](O)C(=O)O [K-5-keto-gluconate] | – | – | – | – | 0 | –
O=C(CO)[C@@H](O)[C@H](O)[C@@H](O)CO [L-sorbose] | does not show any reductive activity | None was produced | None was produced | does not show any reducing action | 0 | production of 25DKG or 5KF from 2KLG or L-sorbose (reverse reaction) (25DKG-Rase [5]): No or not substantial production
[Mg+2] [Mg^++] | – | – | – | – | – | activation of the enzyme (25DKG-Rase [9]): No remarkable increase in activation
[Mn+2] [Mn^++] | – | – | – | – | – | activation of the enzyme (25DKG-Rase [9]): No remarkable increase in activation
NC(=O)C1=CN([C@@H]2O[C@H](COP(=O)(O)OP(=O)(O)OC[C@H]3O[C@@H](n4cnc5c(N)ncnc54)[C@H](O)[C@@H]3O)[C@@H](O)[C@H]2O)C=CC1 [NADH, Reduced nicotinamide adenine dinucleotide] | – | – | – | – | – | reaction velocity with NADH as hydrogen donor relative to NADPH (25DKG-Rase [4]; NADH in place of NADPH): 1/250
O=C(O)C(=O)[C@@H](O)[C@H](O)[C@@H](O)CO [Na-2KLG] | – | – | – | – | 0 | –
O=CC(O)CO (stereo not shown) [glyceroaldehyde] | – | – | – | – | – | inhibition of the enzyme (25DKG-Rase [9]): scarcely inhibited
OCC(O)CO [glycerol] | – | – | – | – | – | stabilization of the enzyme (25DKG-Rase [9]): stabilized
O=C(O)C(=O)O [oxalate] | – | – | – | – | – | inhibition of the enzyme (25DKG-Rase [9]): inhibited
OC[C@H]1O[C@@](CO)(O[C@H]2O[C@H](CO)[C@@H](O)[C@H](O)[C@H]2O)[C@@H](O)[C@@H]1O [sucrose] | – | – | – | – | – | stabilization of the enzyme (25DKG-Rase [9]): stabilized
